From US9180122B2, “5- or 6-substituted 3-hydroxy-2 (1 H)-pyridinones as D-amino acid oxidase (DAAO) inhibitors in therapy of diseases such as schizophrenia, cognitive disorder and pain” (Takeda Pharmaceutical Company Limited, priority 2011, dated 2015)

biological target: Human DAAO enzyme (Homo sapiens (Human), UniProt P14920); assay: In Vitro DAAO Enzyme Assay (Amplex Red detection of H2O2 from D-Serine); assay type: biochemical; conditions: 10 mM D-Serine, 60 minutes at 25° C.
Method: The functional activity of compounds inhibiting the DAAO enzyme was determined by utilizing the co-product of the catalysis of D-Serine, H2O2 which can be quantitatively measured using the Amplex Red (Invitrogen) detection. Amplex® Red reagent is a colorless substrate that reacts with hydrogen peroxide (H2O2) with a 1:1 stoichiometry in the presence of […] to produce highly fluorescent resorufin (excitation/emission maxima=570/585 nm). The changes in fluorescence were monitored by a fluorescence plate reader, Envision (Perkin Elmer) and increases in DAAO activity were readily detected upon addition of D-Serine and suppression of this response observed with the application of test compounds.
The Km of D-Serine was measured for each enzyme batch to maintain consistency; this Km was used in subsequent assays.
On the day of the assay compounds were serially diluted in DMSO before being diluted 1:20 with assay buffer (20 mM Tris ph 7.4). A 5 μl portion of assay buffer was added to the wells of a 384 clear base black walled plate (Corning), 5 μl of diluted compound was then added via automated plate to plate transfer using the Bravo liquid handler (Agilent technologies) followed by 5 μl of human DAAO enzyme and then 5 μl D-Serine 50 mM was added to all but the negative control wells (final concentration of 10 mM). Finally 5 μl Amplex red reagent (Invitrogen) was added to all wells as per manufacturer's protocol. The plate was incubated for 60 minutes in the dark at 25° C. and the fluorescence in each well was measured in the Envision plate reader.
The IC50 values for compounds were determined from ten point half log scale dose-response studies and represent the concentration of compound required to […] 50% inhibition of DAAO activity in the presence of 10 mM D-Serine. Concentration response curves were generated using the average of duplicate wells for each data point and analyzed using nonlinear regression and four parameter curve fit.

Sequence of Human DAAO enzyme (P14920 whole entry): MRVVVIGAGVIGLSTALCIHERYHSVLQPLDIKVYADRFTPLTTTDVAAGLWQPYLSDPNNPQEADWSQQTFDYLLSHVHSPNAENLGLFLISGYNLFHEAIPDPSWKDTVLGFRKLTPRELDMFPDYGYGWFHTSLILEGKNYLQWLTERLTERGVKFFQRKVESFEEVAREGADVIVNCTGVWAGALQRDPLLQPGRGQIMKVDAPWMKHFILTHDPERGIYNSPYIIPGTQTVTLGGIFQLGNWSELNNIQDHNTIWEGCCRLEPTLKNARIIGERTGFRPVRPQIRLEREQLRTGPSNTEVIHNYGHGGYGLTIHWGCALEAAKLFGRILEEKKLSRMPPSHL

Compound | IC50
O=c1[nH]cc(SCc2ccccc2)cc1O [Example 1, 5-(Benzylsulfanyl)-3-hydroxypyridin-2(1H)-one] | 0.19 µM
O=c1[nH]cc(SCc2ccc(Cl)cc2)cc1O [Example 2, 5-[(4-Chlorobenzyl)sulfanyl]-3-hydroxypyridin-2(1H)-one] | 0.035 µM
Cc1ccc(CSc2c[nH]c(=O)c(O)c2)cc1 [Example 3, 3-Hydroxy-5-[(4-methylbenzyl)sulfanyl]pyridin-2(1H)-one] | 0.029 µM
Cc1cccc(CSc2c[nH]c(=O)c(O)c2)c1 [Example 4, 3-Hydroxy-5-[(3-methylbenzyl)sulfanyl]pyridin-2(1H)-one] | 0.24 µM
O=c1[nH]cc(SCc2cccc(Cl)c2)cc1O [Example 5, 5-[(3-Chlorobenzyl)sulfanyl]-3-hydroxypyridin-2(1H)-one] | 0.055 µM
CC(Sc1c[nH]c(=O)c(O)c1)c1ccccc1 (centres unmarked) [Example 6, 3-Hydroxy-5-[(1-phenylethyl)sulfanyl]pyridin-2(1H)-one] | 1.3 µM
O=c1[nH]cc(SCc2ccccc2Cl)cc1O [Example 7, 5-[(2-Chlorobenzyl)sulfanyl]-3-hydroxypyridin-2(1H)-one] | 0.21 µM
O=c1[nH]cc(SCc2cccc(C(F)(F)F)c2)cc1O [Example 8, 3-Hydroxy-5-{[3-(trifluoromethyl)benzyl]sulfanyl}pyridin-2(1H)-one] | 0.19 µM
Cc1ccccc1CSc1c[nH]c(=O)c(O)c1 [Example 9, 3-Hydroxy-5-[(2-methylbenzyl)sulfanyl]pyridin-2(1H)-one] | 0.39 µM
O=c1[nH]cc(SCc2cc(F)cc(Cl)c2)cc1O [Example 10, 5-[(3-Chloro-5-fluorobenzyl)sulfanyl]-3-hydroxypyridin-2(1H)-one] | 0.23 µM
O=c1[nH]cc(SCc2ccc(F)cc2)cc1O [Example 11, 5-[(4-Fluorobenzyl)sulfanyl]-3-hydroxypyridin-2(1H)-one] | 0.047 µM
CCc1ccc(CSc2c[nH]c(=O)c(O)c2)cc1 [Example 12, 5-[(4-Ethylbenzyl)sulfanyl]-3-hydroxypyridin-2(1H)-one] | 0.079 µM
O=c1[nH]cc(SCc2ccc(C(F)(F)F)nc2)cc1O [Example 13, 3-Hydroxy-5-({[6-(trifluoromethyl)pyridin-3-yl]methyl}-sulfanyl)pyridin-2(1H)-one] | 0.16 µM
Cc1cccnc1CSc1c[nH]c(=O)c(O)c1 [Example 14, 3-Hydroxy-5-{[(3-methylpyridin-2-yl)methyl]sulfanyl}pyridin-2(1H)-one] | 1.9 µM
Cc1noc(C)c1CSc1c[nH]c(=O)c(O)c1 [Example 15, 5-{[(3,5-Dimethyl-1,2-oxazol-4-yl)methyl]sulfanyl}-3-hydroxypyridin-2(1H)-one] | 1.9 µM
Cc1nc(CSc2c[nH]c(=O)c(O)c2)co1 [Example 16, 3-Hydroxy-5-{[(2-methyl-1,3-oxazol-4-yl)methyl]sulfanyl}-pyridin-2(1H)-one] | 1.4 µM
O=c1[nH]cc(SCc2ccccn2)cc1O [Example 17, 3-Hydroxy-5-[(pyridin-2-ylmethyl)sulfanyl]pyridin-2(1H)-one] | 0.46 µM
O=c1[nH]cc(SCc2ccncc2)cc1O [Example 18, 3-Hydroxy-5-[(pyridin-4-ylmethyl)sulfanyl]pyridin-2(1H)-one] | 0.1 µM

Compound | IC50
O=c1[nH]cc(SCc2ccc(Cl)cn2)cc1O [Example 19, 5-{[(5-Chloropyridin-2-yl)methyl]sulfanyl}-3-hydroxypyridin-2(1H)-one] | 0.36 µM
O=c1[nH]cc(SCc2ccc(F)c(F)c2)cc1O [Example 20, 5-[(3,4-Difluorobenzyl)sulfanyl]-3-hydroxypyridin-2(1H)-one] | 0.045 µM
COc1ccc(CSc2c[nH]c(=O)c(O)c2)cc1 [Example 21, 3-Hydroxy-5-[(4-methoxybenzyl)sulfanyl]pyridin-2(1H)-one] | 0.13 µM
O=c1[nH]cc(SCc2cccnc2)cc1O [Example 22, 3-Hydroxy-5-[(pyridin-3-ylmethyl)sulfanyl]pyridin-2(1H)-one] | 0.25 µM
Cc1ccc(CSc2c[nH]c(=O)c(O)c2)nc1 [Example 23, 3-Hydroxy-5-{[(5-methylpyridin-2-yl)methyl]sulfanyl}pyridin-2(1H)-one] | 0.49 µM
O=c1[nH]cc(SCc2cnccn2)cc1O [Example 24, 3-Hydroxy-5-[(pyrazin-2-ylmethyl)sulfanyl]pyridin-2(1H)-one] | 1 µM
COc1ccc(CSc2c[nH]c(=O)c(O)c2)cn1 [Example 25, 3-Hydroxy-5-{[(6-methoxypyridin-3-yl)methyl]-sulfanyl}-pyridin-2(1H)-one] | 0.083 µM
Cc1ccccc1CCc1c[nH]c(=O)c(O)c1 [Example 26, 3-Hydroxy-5-(2-methylphenethyl)pyridin-2(1H)-one] | 0.35 µM
O=c1[nH]cc(CCc2ccccc2)cc1O [Example 27, 3-Hydroxy-5-(2-phenylethyl)pyridin-2(1H)-one] | 0.14 µM
Cc1cccc(CCc2c[nH]c(=O)c(O)c2)c1 [Example 28, 3-Hydroxy-5-[2-(3-methylphenyl)ethyl]pyridin-2(1H)-one] | 0.26 µM
Cc1ccc(CCc2c[nH]c(=O)c(O)c2)cc1 [Example 29, 3-Hydroxy-5-[2-(4-methylphenyl)ethyl]pyridin-2(1H)-one] | 0.052 µM
O=c1[nH]cc(CCc2ccc(F)cc2)cc1O [Example 30, 5-[2-(4-Fluorophenyl)ethyl]-3-hydroxypyridin-2(1H)-one] | 0.061 µM
O=c1[nH]cc(CCc2cccc(F)c2)cc1O [Example 31, 5-[2-(3-Fluorophenyl)ethyl]-3-hydroxypyridin-2(1H)-one] | 0.13 µM
O=c1[nH]cc(CCc2ccccc2F)cc1O [Example 32, 5-[2-(2-Fluorophenyl)ethyl]-3-hydroxypyridin-2(1H)-one] | 0.17 µM
O=c1[nH]cc(S(=O)(=O)Cc2ccccc2)cc1O [Example 33, 5-(Benzylsulfonyl)-3-hydroxypyridin-2(1H)-one] | 0.49 µM
O=c1[nH]cc(SCc2cccc(F)c2)cc1O [Example 34, 5-[(3-Fluorobenzyl)sulfanyl]-3-hydroxypyridin-2(1H)-one] | 0.13 µM
O=c1[nH]c(SCc2ccccc2)ccc1O [Example 35, 6-(benzylsulfanyl)-3-hydroxypyridin-2(1H)-one] | 1.4 µM
